Data on 28 compounds can be found in ChEMBL document CHEMBL1154996, “Inhibitors of dipeptidyl peptidase 8 and dipeptidyl peptidase 9. Part 2: isoindoline containing inhibitors” (Bioorg Med Chem Lett, 2008).

SMILES strings stand for the structures. Calls of active or inactive are those of the source. No cut-off for these calls is given here.

For one assay, the target named is Dipeptidyl peptidase 4 (Homo sapiens, UniProt P27487). Put plainly: Inhibition of DPP4.
The next assay deals with Dipeptidyl peptidase 9 (Homo sapiens, UniProt Q86TI2). Put plainly: Inhibition of DPP9.
Chain of Dipeptidyl peptidase 9 (Q86TI2 whole entry): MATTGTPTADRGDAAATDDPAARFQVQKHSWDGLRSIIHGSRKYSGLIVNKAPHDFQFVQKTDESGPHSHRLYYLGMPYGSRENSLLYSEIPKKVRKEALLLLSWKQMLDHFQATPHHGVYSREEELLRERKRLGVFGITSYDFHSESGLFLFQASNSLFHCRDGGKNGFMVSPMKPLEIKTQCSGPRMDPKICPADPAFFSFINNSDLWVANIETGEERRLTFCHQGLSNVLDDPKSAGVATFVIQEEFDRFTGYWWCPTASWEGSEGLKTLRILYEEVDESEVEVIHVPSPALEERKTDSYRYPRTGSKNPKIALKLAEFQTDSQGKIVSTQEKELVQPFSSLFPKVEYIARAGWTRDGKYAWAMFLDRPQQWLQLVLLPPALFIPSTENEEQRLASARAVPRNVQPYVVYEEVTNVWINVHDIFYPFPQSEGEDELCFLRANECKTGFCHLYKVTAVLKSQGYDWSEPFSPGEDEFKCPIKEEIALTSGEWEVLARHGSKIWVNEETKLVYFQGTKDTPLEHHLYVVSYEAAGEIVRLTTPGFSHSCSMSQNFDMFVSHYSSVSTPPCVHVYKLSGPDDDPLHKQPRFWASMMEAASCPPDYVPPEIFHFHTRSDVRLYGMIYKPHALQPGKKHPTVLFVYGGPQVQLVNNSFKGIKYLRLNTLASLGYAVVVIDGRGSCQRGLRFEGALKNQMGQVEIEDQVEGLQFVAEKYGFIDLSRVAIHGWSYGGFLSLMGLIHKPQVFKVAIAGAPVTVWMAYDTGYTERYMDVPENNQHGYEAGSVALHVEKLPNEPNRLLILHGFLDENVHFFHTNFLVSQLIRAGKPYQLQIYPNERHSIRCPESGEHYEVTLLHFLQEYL
For a further assay, the target named is Dipeptidyl peptidase 8 (Homo sapiens, UniProt Q6V1X1). Put plainly: Inhibition of DPP8.
Chain of Dipeptidyl peptidase 8 (Q6V1X1 whole entry): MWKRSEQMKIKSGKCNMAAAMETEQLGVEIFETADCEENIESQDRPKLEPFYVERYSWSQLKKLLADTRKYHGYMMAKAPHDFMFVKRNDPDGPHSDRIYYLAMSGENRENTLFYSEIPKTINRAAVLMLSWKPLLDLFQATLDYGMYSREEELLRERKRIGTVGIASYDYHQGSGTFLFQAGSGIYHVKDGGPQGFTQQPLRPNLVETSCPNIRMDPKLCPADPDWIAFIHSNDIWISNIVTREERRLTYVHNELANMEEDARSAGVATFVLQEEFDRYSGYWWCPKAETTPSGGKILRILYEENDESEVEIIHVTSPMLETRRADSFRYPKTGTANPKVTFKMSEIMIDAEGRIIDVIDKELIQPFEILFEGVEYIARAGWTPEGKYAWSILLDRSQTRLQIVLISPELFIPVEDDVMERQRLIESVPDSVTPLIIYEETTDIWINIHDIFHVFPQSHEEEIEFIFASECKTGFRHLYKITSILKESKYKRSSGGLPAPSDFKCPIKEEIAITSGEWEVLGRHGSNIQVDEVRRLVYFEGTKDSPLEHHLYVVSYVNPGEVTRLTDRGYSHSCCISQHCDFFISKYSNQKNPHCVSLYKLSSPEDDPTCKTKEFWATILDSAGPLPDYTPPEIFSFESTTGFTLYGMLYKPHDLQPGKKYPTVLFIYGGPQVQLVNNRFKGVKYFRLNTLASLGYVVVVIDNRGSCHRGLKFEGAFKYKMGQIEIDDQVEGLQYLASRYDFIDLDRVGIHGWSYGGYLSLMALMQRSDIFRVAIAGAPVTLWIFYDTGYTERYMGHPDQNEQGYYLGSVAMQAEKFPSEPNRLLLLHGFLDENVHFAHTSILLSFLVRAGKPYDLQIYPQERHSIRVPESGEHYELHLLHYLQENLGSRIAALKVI
In another assay the target is Dipeptidyl peptidase 2 (Homo sapiens, UniProt Q9UHL4). As to the kind of experiment: Inhibition of DPP2.

`N[C@@H](CCCCNc1ccc2ccccc2c1)C(=O)N1Cc2ccccc2C1`: on Dipeptidyl peptidase 4, the IC50 turned out to be 178 µM.

`O=C([C@@H]1C[C@@H](Nc2ccc3ccccc3c2)CN1)N1Cc2ccccc2C1`: the concentration for half-maximal inhibition (IC50) against Dipeptidyl peptidase 4 was greater than 250 µM.

With `CC[C@H](C)[C@H](N)C(=O)N1Cc2ccc(C(F)(F)F)cc2C1`, the half-inhibitory concentration (IC50) against Dipeptidyl peptidase 9 is greater than 100 µM; against Dipeptidyl peptidase 8, greater than 100 µM; against Dipeptidyl peptidase 2, 13 µM; at Dipeptidyl peptidase 4, greater than 100 µM.

On Dipeptidyl peptidase 2, `O=C([C@@H]1C[C@H](N(c2ccc3ccccc3c2)c2ccc3ccccc3c2)CN1)N1Cc2ccccc2C1` displayed an IC50 greater than 100 µM.

`O=C([C@@H]1C[C@H](Nc2ccc3ccccc3c2)CN1)N1Cc2ccccc2C1` yielded a half-inhibitory concentration (IC50) at Dipeptidyl peptidase 4 greater than 100 µM.

Regarding `CC[C@H](C)[C@H](N)C(=O)N1Cc2ccc(I)cc2C1`, the IC50 at Dipeptidyl peptidase 9 was greater than 50 µM; against Dipeptidyl peptidase 8, greater than 25 µM; against Dipeptidyl peptidase 2, 2.6 µM; against Dipeptidyl peptidase 4 it was greater than 100 µM.

In turn, `CC[C@H](C)[C@H](N)C(=O)N1Cc2ccc(Br)cc2C1` had an IC50 on Dipeptidyl peptidase 4 greater than 100 µM.

For `N[C@@H](CCCCN(c1ccc2ccccc2c1)c1ccc2ccccc2c1)C(=O)N1Cc2ccccc2C1`, at Dipeptidyl peptidase 4, the IC50 was greater than 31.2 µM.

Compound `O=C([C@@H]1C[C@H](NCc2ccccc2)CN1)N1Cc2ccccc2C1` registered a half-inhibitory concentration (IC50) against Dipeptidyl peptidase 4 greater than 250 µM.

In the case of `CC[C@H](C)[C@H](N)C(=O)N1Cc2cccnc2C1`, the half-inhibitory concentration (IC50) against Dipeptidyl peptidase 2 and against Dipeptidyl peptidase 4 was greater than 100 µM in each case.

On to `N[C@@H](CCCCNCc1ccccc1)C(=O)N1Cc2ccccc2C1`, for which the 50% inhibitory concentration (IC50) on Dipeptidyl peptidase 4 is greater than 50 µM.

Take `N[C@@H](CCCCN(Cc1ccccc1)Cc1ccccc1)C(=O)N1Cc2ccccc2C1`: at Dipeptidyl peptidase 4, the IC50 is greater than 62.5 µM.

On to `CC[C@H](C)[C@H](N)C(=O)N1Cc2ccc([N+](=O)[O-])cc2C1`, for which the 50% inhibitory concentration (IC50) is greater than 25 µM against Dipeptidyl peptidase 9, greater than 50 µM against Dipeptidyl peptidase 8, 66 µM against Dipeptidyl peptidase 2 and greater than 50 µM against Dipeptidyl peptidase 4.

Consider `CC[C@H](C)[C@H](N)C(=O)N1Cc2ccc(N=[N+]=[N-])cc2C1`, for which the IC50 against Dipeptidyl peptidase 8 is greater than 100 µM; on Dipeptidyl peptidase 2 it was greater than 50 µM; against Dipeptidyl peptidase 4 it was greater than 100 µM.

With `CC[C@@H](C)[C@H](N)C(=O)N1Cc2cccc(F)c2C1`, the IC50 at Dipeptidyl peptidase 4 was greater than 100 µM.

Turning to `O=C([C@@H]1C[C@H](N(c2cccc3ccccc23)c2cccc3ccccc23)CN1)N1Cc2ccccc2C1`, the outcome on Dipeptidyl peptidase 4 was inactive.

With `N[C@@H](CCCCNC(=O)OCc1ccccc1)C(=O)N1Cc2ccccc2C1`, the IC50 worked out at 2.5 µM on Dipeptidyl peptidase 2 and 245 µM against Dipeptidyl peptidase 4.

`O=C([C@@H]1C[C@H](Nc2cccc3ccccc23)CN1)N1Cc2ccccc2C1` showed an IC50 at Dipeptidyl peptidase 4 of 4.97 µM.

As to `CC[C@@H](C)[C@H](N)C(=O)N1Cc2ccc(C(F)(F)F)cc2C1`, the concentration for half-maximal inhibition (IC50) was greater than 100 µM against Dipeptidyl peptidase 9, greater than 100 µM against Dipeptidyl peptidase 8, 12.6 µM at Dipeptidyl peptidase 2 and greater than 100 µM at Dipeptidyl peptidase 4.

Compound `CC[C@H](C)[C@H](N)C(=O)N1Cc2cccc(F)c2C1` came in with an IC50 against Dipeptidyl peptidase 4 greater than 100 µM.

As to `CC[C@H](C)[C@H](N)C(=O)N1Cc2cccc(C)c2C1`, the IC50 against Dipeptidyl peptidase 9, against Dipeptidyl peptidase 8, against Dipeptidyl peptidase 2 and at Dipeptidyl peptidase 4 was greater than 100 µM each time.

For the compound `CC[C@@H](C)[C@H](N)C(=O)N1Cc2ccc(C)cc2C1`, at Dipeptidyl peptidase 4, the IC50 is greater than 100 µM.

In turn, `NCCCC[C@H](N)C(=O)N1Cc2ccccc2C1` registered a half-inhibitory concentration (IC50) on Dipeptidyl peptidase 4 of 161 µM.

With `N[C@H]1CN[C@H](C(=O)N2Cc3ccccc3C2)C1`, at Dipeptidyl peptidase 4, the IC50 is greater than 500 µM.

For the compound `O=C([C@@H]1C[C@@H](N(Cc2ccccc2)Cc2ccccc2)CN1)N1Cc2ccccc2C1`, the half-inhibitory concentration (IC50) is greater than 25 µM on Dipeptidyl peptidase 9, 4.5 µM against Dipeptidyl peptidase 2 and greater than 500 µM at Dipeptidyl peptidase 4.

As for `CC[C@H](C)[C@H](N)C(=O)N1Cc2ccc(C)cc2C1`, on Dipeptidyl peptidase 4, the IC50 is greater than 100 µM.

On Dipeptidyl peptidase 4, `O=C([C@@H]1C[C@@H](NCc2ccccc2)CN1)N1Cc2ccccc2C1` had an IC50 greater than 1000 µM.

As to `CC[C@H](C)[C@H](N)C(=O)N1Cc2ccc(C(C)(C)C)cc2C1`, the IC50 at Dipeptidyl peptidase 9, on Dipeptidyl peptidase 8, on Dipeptidyl peptidase 2 and against Dipeptidyl peptidase 4 was greater than 100 µM throughout.

As a reminder, the IC50 is the concentration at which inhibition is half-maximal. A low value points to inhibition by little substance.
